Data set [1] is described as follows: absorption and bioavailability tests in animals. It counts as in vivo.
Data set [2] is described as follows: solubility in water and wettability of the crystalline form. It counts as physicochemical.
For a further data set, the target named is PDE V (Homo sapiens, UniProt O76074). As to the kind of experiment: PDE V inhibition. The class given is biochemical.

Consider `CCn1c(=O)c2c(nc(N[C@@H]3CCC[C@H]3O)n2Cc2ccc(OC)c(Br)c2)n(CCO)c1=O` [7-[(3-Bromo-4-methoxyphenyl)methyl]-1-ethyl-3,7-dihydro-8-[[(1R,2R)-2-hydroxycyclopentyl]amino]-3-(2-hydroxyethyl)-1H-purine-2,6-dione], for which the “absorption from the gastrointestinal tract” value in data set [1] (in vivo) is reported as “slow”. Moreover, the bioavailability entry in data set [1] (tests conducted so far in animals) is on record as “low”. For the same molecule, the solubility in water entry in data set [2] is on record as “poor”. Further, in data set [2] (crystalline form), the wettability result was “poor”. At PDE V, the “effectiveness as a PDE V inhibitor” value is “particularly effective” and the “specificity for PDE isozyme” value is recorded as “specificity for the PDE V isozyme”.

The record behind these values is patent US20090074869A1, “PHARMACEUTICAL FORMULATIONS” (Schering Corporation, priority 2003, published 2009).
